The record followed here is US20110189280A1, “DOSAGE FORM COMPRISING 1-ISOPROPYL-4-HEXAHYDRO-1H-1,4-DIAZEPINE OR A SALT THEREOF” (priority 2008, published 2011).

The series is described as follows: Gravimetric vapour sorption (GVS) analysis, water sorption/desorption at different relative humidities. The format is physicochemical. The following applies: across the 0-90% relative humidity range at 25° C. under nitrogen.

Turning to `CC(C)N1CCCN(C(=O)c2ccc(OC3CCOCC3)cc2)CC1.O=C(O)/C=C\C(=O)O` [Drug Preparation Example 3, 1-Isopropyl-4-{[4-(tetrahydro-2H-pyran-4-yloxy)phenyl]carbonyl}hexahydro-1H-1,4-diazepine mono-maleate salt (crystalline Form 1)], the “water reversibly adsorbed and/or absorbed, and/or desorbed (GVS)” value is on record as “approximately 0.4 % w/w”.

Turning to `CC(C)N1CCCN(C(=O)c2ccc(OC3CCOCC3)cc2)CC1.Cl` [Drug Preparation Example 1 Part C, 1-isopropyl-4-{[4-(tetrahydro-2H-pyran-4-yloxy)phenyl]carbonyl}hexahydro-1H-1,4-diazepine hydrochloride], the “water adsorbed and/or absorbed, and/or desorbed (GVS), compared with crystalline Form 1 mono-maleate” value (sample before purification by recrystallisation, data not shown) is listed as “higher quantities of water”.
